{"source": "patent US7501395B2", "about": "“Method of screening for antianxiety drugs” (Eisai R & D Management Co., Ltd., priority 2005, dated 2009)", "key": {"[1]": {"tested_on": "C57BL/6NCrj mice", "assay": "light-dark exploration test, SB-334867 (Example 3)", "assay_type": "in vivo", "protocol": "Specifically, two types of solutions, 0.50 nmol/μl and 1.50 nmol/μl, were prepared. The artificial cerebrospinal fluid (aCSF) was used alone as a negative control.\nThe position of the inserted cannula was also confirmed in the same manner.\nThe following three subject groups were tested.\nThe test apparatus consisted of a dark compartment (depth 10 cm×width 15 cm length 20 cm) and a light compartment (depth 20 cm×width 15 cm×length 20 cm). Specifically, the dark compartment was made of a black plastic material with a lid on top whereas the light compartment was made of a white plastic material with an open top. Both of the light and dark compartments were connected via a black plastic tunnel (depth 7 cm×width 10 cm×length 4.5 cm) that allows access to both compartments.\nAt the end of the test, the total time spent in the light compartment was calculated for each test animal, and the results were expressed as “average time+SEM” for each test subject (see FIG. 4). […]"}, "[2]": {"tested_on": "WISTAR rats", "assay": "elevated plus maze test, orexin-A (Example 1)", "assay_type": "in vivo", "conditions": "intracerebroventricular administration to rats, 0.1 to 3.0 nmol, 15 minutes before test; 5 min test", "procedure": "WISTAR rats (male, 300 to 400 g, Charles River, Japan) were used for the elevated plus maze test. Two […] were bred per cage.\n(§1) Orexin-A (Peptide Institute Inc., Osaka, Japan) was dissolved in an artificial cerebrospinal fluid (aCSF: glucose 10 mM, KCl 2 mM, NaCl 115 mM, CaCl2 2.5 mM, MgSO4 1.2 mM, NaHCO3 25 mM, KH2PO4 2.2 mM; pH 7. 4) to prepare solutions at various concentrations (0.1 nmol/μl, 0.3 nmol/μl, 1.0 nmol/μl, 3.0 nmol/μl). The artificial cerebrospinal fluid was used alone as a negative control.\n(§2) A stainless-steel injection needle was used that can be inserted into the lateral ventricle to a point 0.5 mm deeper than the tip of the guide cannula for intracerebroventricularly administering an orexin-A solution. The amounts of orexin-A solution were 2 μl and 5 μl for mice and rats, respectively. A microsyringe (705N 50 μl, Hamilton, Nevada, USA) was connected to a reflux pump (CMA100, BAS Inc., Tokyo, Japan) for injection at a precisely constant rate (1 μl/min for mice and 2.5 μl/min for rats).\nThe following five subject groups were tested. […]\nAt the end of the test, the total time spent in the open arms was calculated for each test animal, and the results were expressed as “average time+SEM” for each test subject (see FIG. 2). […]"}, "[3]": {"tested_on": "mouse", "conditions": "intracerebroventricular administration to a mouse; cited from earlier work"}, "[4]": {"tested_on": "C57BL/6NCrj mice", "assay": "light-dark exploration test, orexin-A (Example 1)", "assay_type": "in vivo", "conditions": "for time spent in the light compartment, difference from the aCSF administration group: intracerebroventricular, mice", "procedure": "C57BL/6NCrj mice (male, 25 to 30 g, Charles River, Japan) were used for the light-dark exploration test. Ten mice were bred per cage.\nas §1, §2\nThe following four subject groups were tested.\nThe test apparatus consisted of two compartments, namely a dark compartment (depth 10 cm×width 15 cm×length 20 cm) and a light compartment (depth 20 cm×width 15 cm×length 20 cm). Specifically, the dark compartment was made using a black plastic material with a lid on top whereas the light compartment was made using a white plastic material with an open top. Both of the light and dark compartments were connected via a black plastic tunnel (depth 7 cm×width 10 cm×length 4.5 cm) that allows access to both compartments.\nThe illumination of the test room was set to 150 lux. The test animals were habituated to an illumination of 10 lux in another room for more than 3 hours before starting the test (except upon administration). This test was conducted between 13:00 to 16:00. […]\nAt the end of the test, the total time spent in the light compartment was calculated for each test animal, and the results were expressed as “average time+SEM” (see FIG. 1). […]"}, "[5]": {"tested_on": "C57BL/6NCrj mice", "assay": "elevated plus maze test, orexin-A (Example 2)", "assay_type": "in vivo", "conditions": "1.0 nmol orexin-A, intracerebroventricular, vs aCSF administration group, p<0.05", "procedure": "C57BL/6NCrj mice (male, 25 to 30 g, Charles River, Japan) were used. Ten mice were bred per cage.\nas §1, with “7.4)” for “7. 4)”, “a solution” for “solutions”, “a predetermined concentration (1.0” for “various concentrations (0.1 nmol/μl, 0.3 nmol/μl, 1.0 nmol/μl, 3.0”\nA stainless-steel injection needle was used that can be inserted into the lateral ventricle at a point 0.5 mm deeper than the tip of the guide cannula for intracerebroventricular administration of the orexin-A solution. The amount of the orexin-A solution was 2 μl. A microsyringe (705N 50 μl, Hamilton, Nevada, USA) was connected to a reflux pump (CMA100, BAS Inc., Tokyo, Japan) for injection at a precisely constant rate (1 μl/min).\nThe following two subject groups were tested.\nThe elevated plus maze test was basically carried out according to the test procedure described in S. Pellow et al. (J. Neurosci. Methods, vol. 14 (1985), p-149-167). […]\nAt the end of the test, the total time spent in the open arms was calculated for each test animal, and the results were expressed as “average time+SEM” for each test subject (see FIG. 3). […]"}, "[6]": {"molecular_target": "T1, orexin receptor-2 (OX2R) (Homo sapiens, UniProt O43614)", "T1 sequence (O43614 1-444)": "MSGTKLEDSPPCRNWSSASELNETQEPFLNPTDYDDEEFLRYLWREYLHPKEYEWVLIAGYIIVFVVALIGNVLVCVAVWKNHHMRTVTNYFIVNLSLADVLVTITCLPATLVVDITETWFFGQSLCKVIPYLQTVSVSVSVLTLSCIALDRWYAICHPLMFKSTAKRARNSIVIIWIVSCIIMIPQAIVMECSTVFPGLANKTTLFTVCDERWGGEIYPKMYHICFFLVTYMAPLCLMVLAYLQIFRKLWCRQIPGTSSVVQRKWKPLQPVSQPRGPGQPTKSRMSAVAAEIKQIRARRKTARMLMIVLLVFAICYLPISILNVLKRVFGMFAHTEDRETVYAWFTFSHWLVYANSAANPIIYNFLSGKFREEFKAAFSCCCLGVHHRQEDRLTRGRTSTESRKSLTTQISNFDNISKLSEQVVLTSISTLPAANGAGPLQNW", "conditions": "orexin-A compared with orexin-B; cited from earlier work"}}, "note": "Ends that are not written are not given here."}
{"molecule": "Cc1nc2ccc(NC(=O)Nc3ccnc4cccnc34)cc2o1", "note": "[SB-334867, 1-(2-methylbenzoxazole 6-yl)-3-[1,5]naphthyridine-4-yl urea]", "values": [{"measurement": "time spent in the light compartment", "setting": "[1]; intracerebroventricular administration to mice, 1 nmol and 3 nmol, 15 minutes before test, 5 min test", "result": "lengthened time spent in the light compartment dosage-dependently"}, {"measurement": "assessment result: action on anxiety", "setting": "[1]; light-dark exploration test, mice, intracerebroventricular", "result": "anxiogenic action"}]}
{"molecule": "orexin-A: neuropeptide, endogenous orexin receptor ligand; 33 amino acids with two disulfide bonds; from Peptide Institute Inc. (QPLPDCCRQKTCSCRLYELLHGAGNHAAGILTL; disulfide (positions not given here); ends not checked; also: two disulfide bonds, pairing not given here; UniProt O43612 34-66, looked up)", "values": [{"measurement": "time spent in the open arms", "setting": "[2]", "result": "shortened volume-dependently"}, {"measurement": "stress-like behaviors such as face washing, grooming, searching and burrowing", "setting": "[3]", "result": "increases"}, {"measurement": "time spent in the light compartment, difference from the aCSF administration group", "setting": "[4]; 0.1 nmol orexin-A administration group", "result": "significant difference"}, {"measurement": "time spent in the light compartment, difference from the aCSF administration group", "setting": "[4]; 1.0 nmol orexin-A administration group", "result": "significant difference"}, {"measurement": "time spent in the light compartment", "setting": "[4]; intracerebroventricular administration to mice 15 minutes before test, 5 min test, vs aCSF", "result": "significantly shortened"}, {"measurement": "time spent in the open arms (elevated plus maze test, FIG. 3)", "setting": "[5]", "result": "significantly shortened"}]}
{"molecule": "orexin-B: neuropeptide, endogenous orexin receptor ligand comprising 28 amino acids", "values": [{"measurement": "binding affinity of OX2R", "setting": "[6]", "result": "generally the same level"}]}
